{"source": "patent US11180474B2", "about": "(BRISTOL-MYERS SQUIBB COMPANY, priority 2016, dated 2021)"}
{"target": "T1, human TLR8 (Homo sapiens, UniProt Q9NR97)", "T1 construct": "host or cells: HEK-Blue cells", "T1 sequence (Q9NR97 27-1041)": "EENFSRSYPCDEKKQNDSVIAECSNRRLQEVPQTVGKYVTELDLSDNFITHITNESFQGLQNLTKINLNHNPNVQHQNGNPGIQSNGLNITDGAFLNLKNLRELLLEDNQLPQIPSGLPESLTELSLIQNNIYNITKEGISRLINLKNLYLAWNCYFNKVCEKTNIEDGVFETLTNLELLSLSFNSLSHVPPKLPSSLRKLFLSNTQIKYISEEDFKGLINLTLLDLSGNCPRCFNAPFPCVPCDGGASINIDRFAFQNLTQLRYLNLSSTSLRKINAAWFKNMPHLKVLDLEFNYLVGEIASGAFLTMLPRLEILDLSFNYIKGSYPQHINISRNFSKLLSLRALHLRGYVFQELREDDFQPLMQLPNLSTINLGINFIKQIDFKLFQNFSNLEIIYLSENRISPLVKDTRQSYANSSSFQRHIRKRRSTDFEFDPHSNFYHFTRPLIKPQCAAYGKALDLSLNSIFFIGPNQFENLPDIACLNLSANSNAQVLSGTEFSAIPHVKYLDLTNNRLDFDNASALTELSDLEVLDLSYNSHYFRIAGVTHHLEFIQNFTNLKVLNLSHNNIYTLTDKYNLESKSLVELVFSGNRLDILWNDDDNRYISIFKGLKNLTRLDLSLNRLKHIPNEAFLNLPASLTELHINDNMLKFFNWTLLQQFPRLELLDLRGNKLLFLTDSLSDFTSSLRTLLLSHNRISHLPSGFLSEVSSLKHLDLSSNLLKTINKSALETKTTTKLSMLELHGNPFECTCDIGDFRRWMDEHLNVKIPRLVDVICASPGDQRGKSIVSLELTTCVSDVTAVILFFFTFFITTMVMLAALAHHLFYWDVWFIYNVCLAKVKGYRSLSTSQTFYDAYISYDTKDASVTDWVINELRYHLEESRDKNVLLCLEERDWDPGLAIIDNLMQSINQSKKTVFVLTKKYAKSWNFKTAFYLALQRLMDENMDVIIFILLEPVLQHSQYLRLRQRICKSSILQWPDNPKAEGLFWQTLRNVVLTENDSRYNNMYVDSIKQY", "experiment": "TLR8 inhibition reporter assay (HEK-Blue cells, SEAP reporter, R848 stimulation)", "format": "cell-based", "details": "HEK-Blue cells overexpressing human TLR8, R848 15.9 μM", "outline": "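22 h, 37° C, 5% CO2 incubation; compounds 0.05 nM-50 μM final; TLR7 cells 15000/well, TLR8 20,000/well. Readout: SEAP via HEK-Blue Detection medium. % inhibition = signal reduction versus agonist + DMSO wells, referenced to known inhibitor.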", "units": {"IC50": "nM"}}
{"molecule": "COc1ccc(-c2[nH]c3ccc(C4CCN(C(=O)CN5CCC[C@@H](C(=O)N6CCN(CCN7CCCC7)CC6)C5)CC4)cc3c2C(C)C)cc1OC", "note": "[Example 307, (R)-1-(4-(2-(3,4-dimethoxyphenyl)-3-isopropyl-1H-indol-5-yl)piperidin-1-yl)-2-(3-(4-(2-(pyrrolidin-1-yl)ethyl)piperazine-1-carbonyl)piperidin-1-yl)ethan-1-one]", "IC50": 38}
{"molecule": "COc1ccc(-c2[nH]c3ccc(C4CCN(C(=O)CNCCOCCO)CC4)cc3c2C(C)C)cc1OC", "note": "[Example 230, 1-(4-(2-(3,4-dimethoxyphenyl)-3-isopropyl-1H-indol-5-yl)piperidin-1-yl)-2-((2-(2-hydroxyethoxy)ethyl)amino)ethan-1-one]", "IC50": 18}
{"molecule": "COc1ccc(-c2[nH]c3ccc(C4CCN(C(=O)CNC5CCC(C(C)(C)O)CC5)CC4)cc3c2C(C)C)cc1OC", "note": "(stereo not shown) [Example 245, 1-(4-(2-(3,4-dimethoxyphenyl)-3-isopropyl-1H-indol-5-yl)piperidin-1-yl)-2-((4-(2-hydroxypropan-2-yl)cyclohexyl)amino)ethan-1-one]", "IC50": 26}
{"molecule": "COc1ccc(-c2[nH]c3ccc(C4CCN(C(=O)COC(C)C)CC4)cc3c2C(C)C)cc1OC", "note": "[Example 314, 1-(4-(2-(3,4-dimethoxyphenyl)-3-isopropyl-1H-indol-5-yl)piperidin-1-yl)-2-isopropoxyethan-1-one]", "IC50": 657}
{"molecule": "COc1ccc(-c2[nH]c3ccc(C4CCN(C(=O)CN5CCC(N6CCN(C)CC6)CC5)CC4)cc3c2C(C)C)cc1OC", "note": "[Example 241, 1-(4-(2-(3,4-dimethoxyphenyl)-3-isopropyl-1H-indol-5-yl)piperidin-1-yl)-2-(4-(4-methylpiperazin-1-yl)piperidin-1-yl)ethan-1-one]", "IC50": 13}
{"molecule": "COc1ccc(-c2[nH]c3ccc(C4CCN(C(=O)CN5CCC(O)CC5)CC4)cc3c2C(C)C)cc1OC", "note": "[Example 238, 1-(4-(2-(3,4-dimethoxyphenyl)-3-isopropyl-1H-indol-5-yl)piperidin-1-yl)-2-(4-hydroxypiperidin-1-yl) ethan-1-one]", "IC50": 5}
{"molecule": "COc1ccc(-c2[nH]c3ccc(C4CCN(C(=O)CNC5CCCC5O)CC4)cc3c2C(C)C)cc1OC", "note": "(stereo not shown) [Example 236, 1-(4-(2-(3,4-dimethoxyphenyl)-3-isopropyl-1H-indol-5-yl)piperidin-1-yl)-2-((2-hydroxycyclopentyl)amino)ethan-1-one]", "IC50": 38}
{"molecule": "COc1ccc(-c2[nH]c3ccc(C4CCN(C(=O)CN5CCC[C@H](C(=O)N6CC7CNCC7C6)C5)CC4)cc3c2C(C)C)cc1OC", "note": "(stereo partly shown) [Example 299, 1-(4-(2-(3,4-dimethoxyphenyl)-3-isopropyl-1H-indol-5-yl)piperidin-1-yl)-2-((3 S)-3-(octahydropyrrolo[3,4-c]pyrrole-2-carbonyl)piperidin-1-yl)ethan-1-one]", "IC50": 128}
{"molecule": "COc1ccc(-c2[nH]c3ccc(C4CCN(CC(=O)N[C@H]5CC[C@H](C(C)(C)O)CC5)CC4)cc3c2C(C)C)cc1OC", "note": "[Example 279, 2-(4-(2-(3,4-dimethoxyphenyl)-3-isopropyl-1H-indol-5-yl)piperidin-1-yl)-N-((1r,4r)-4-(2-hydroxypropan-2-yl)cyclohexyl)acetamide]", "IC50": 1160}
{"molecule": "COc1ccc(-c2[nH]c3ccc(C4CCN(Cc5nccn5C)CC4)cc3c2C(C)C)cc1OC", "note": "[Example 262, 2-(3,4-dimethoxyphenyl)-3-isopropyl-5-(1-((1-methyl-1H-imidazol-2-yl)methyl)piperidin-4-yl)-1H-indole]", "IC50": 23}
{"molecule": "COc1ccc(-c2[nH]c3ccc(C4CCN(C(=O)CN5CCCC(CO)C5)CC4)cc3c2C(C)C)cc1OC", "note": "(stereo not shown) [Example 249, 1-(4-(2-(3,4-dimethoxyphenyl)-3-isopropyl-1H-indol-5-yl)piperidin-1-yl)-2-(3-(hydroxymethyl)piperidin-1-yl)ethan-1-one]", "IC50": 17}
{"molecule": "COc1ccc(-c2[nH]c3ccc(C4CCNCC4O)cc3c2C(C)C)cc1OC", "note": "(single isomer, unassigned) [Example 318, 4-(2-(3,4-dimethoxyphenyl)-3-isopropyl-1H-indol-5-yl)piperidin-3-ol 2,2,2-trifluoroacetate]", "IC50": 6070}
{"molecule": "COc1ccc(-c2[nH]c3ccc(C4CCN(C(=O)CN(C)CCO)CC4)cc3c2C(C)C)cc1OC", "note": "[Example 242, 1-(4-(2-(3,4-dimethoxyphenyl)-3-isopropyl-1H-indol-5-yl)piperidin-1-yl)-2-((2-hydroxyethyl)(methyl)amino)ethan-1-one]", "IC50": 14}
{"molecule": "COc1ccc(-c2[nH]c3ccc(C4CCN(C(=O)CN5CCCN(C(C)=O)CC5)CC4)cc3c2C(C)C)cc1OC", "note": "[Example 222, 2-(4-acetyl-1,4-diazepan-1-yl)-1-(4-(2-(3,4-dimethoxyphenyl)-3-isopropyl-1H-indol-5-yl)piperidin-1-yl)ethan-1-one]", "IC50": 67}
{"molecule": "COc1ccc(-c2[nH]c3ccc(C4CCN(C(=O)CN5CCC[C@@H](C(=O)N(C)C(C)C)C5)CC4)cc3c2C(C)C)cc1OC", "note": "[Example 304, (R)-1-(2-(4-(2-(3,4-dimethoxyphenyl)-3-isopropyl-1H-indol-5-yl)piperidin-1-yl)-2-oxoethyl)-N-isopropyl-N-methylpiperidine-3-carboxamide]", "IC50": 61}
{"molecule": "COc1ccc(-c2[nH]c3ccc(C4CCN(C(=O)CN5CCOCC5)CC4)cc3c2C(C)C)cc1OC", "note": "[Example 223, 1-(4-(2-(3,4-dimethoxyphenyl)-3-isopropyl-1H-indol-5-yl)piperidin-1-yl)-2-morpholinoethan-1-one]", "IC50": 98}
{"molecule": "CCN(CC)C(=O)C1CCCN(CC(=O)N2CCC(c3ccc4[nH]c(-c5ccc(OC)c(OC)c5)c(C(C)C)c4c3)CC2)C1", "note": "(stereo not shown) [Example 247, 1-(2-(4-(2-(3,4-dimethoxyphenyl)-3-isopropyl-1H-indol-5-yl)piperidin-1-yl)-2-oxoethyl)-N,N-diethylpiperidine-3-carboxamide]", "IC50": 38}
{"molecule": "COc1ccc(-c2[nH]c3ccc(C4CCN(C(=O)CN5CCC[C@H](C(=O)N6CCN(C(C)=O)CC6)C5)CC4)cc3c2C(C)C)cc1OC", "note": "[Example 284, (S)-2-(3-(4-acetylpiperazine-1-carbonyl)piperidin-1-yl)-1-(4-(2-(3,4-dimethoxyphenyl)-3-isopropyl-1H-indol-5-yl)piperidin-1-yl)ethan-1-one]", "IC50": 25}
{"molecule": "COc1ccc(-c2[nH]c3ccc(C4CCN(CC(=O)N(C)C)CC4)cc3c2C(C)C)cc1OC", "note": "[Example 312, 2-(4-(2-(3,4-dimethoxyphenyl)-3-isopropyl-11H-indol-5-yl)piperidin-1-yl)-N,N-dimethylacetamide]", "IC50": 28}
{"molecule": "COc1ccc(-c2[nH]c3ccc(C4CCN(C(=O)CN5CCC[C@H](C(=O)NCCNC(C)=O)C5)CC4)cc3c2C(C)C)cc1OC", "note": "[Example 295, (S)—N-(2-acetamidoethyl)-1-(2-(4-(2-(3,4-dimethoxyphenyl)-3-isopropyl-1H-indol-5-yl)piperidin-1-yl)-2-oxoethyl) piperidine-3-carboxamide]", "IC50": 22}
{"molecule": "COc1ccc(-c2[nH]c3ccc(C4CCN(C(=O)CN5CCC[C@@H](C(=O)NCC(N)=O)C5)CC4)cc3c2C(C)C)cc1OC", "note": "[Example 309, (R)—N-(2-amino-2-oxoethyl)-1-(2-(4-(2-(3,4-dimethoxyphenyl)-3-isopropyl-1H-indol-5-yl)piperidin-1-yl)-2-oxoethyl)piperidine-3-carboxamide]", "IC50": 59}
{"tested_on": "TLR7", "experiment": "In vivo mouse TLR7 PD model (gardiquimod challenge, plasma IL-6)", "details": "oral, dose 0.001 mg/kg", "description": "(§1) In Vivo Mouse TLR7 and TLR9 PD Model:\n(§2) Adult male C57BL/6 mice were used for the experiments. Mice (7 to 10 per group) were randomized into different treatment groups based on body weight. Mice from the respective treatment groups were administered orally with vehicle or test compound. Thirty min after the oral administration of vehicle or test compound, mice were challenged with intraperitoneal injection of gardiquimod for TLR7 PD model and CpG-ODN for TLR9 PD model. Ninety minutes after gardiquimod injection and 120 minutes after CpG-ODN injection, mice were bled under isoflurane anaesthesia and plasma IL-6 level was estimated by using commercially available ELISA kit (BD Biosciences). At the end of experiment, mean cytokine data was plotted and one way ANOVA with Dunnett's test was performed to calculate the significance of test compound treated group vs. vehicle control group. Percent inhibition of cytokine induction was calculated for test compound treated group vs vehicle control group.", "units": {"% inhibition of IL6": "%"}}
{"molecule": "COc1ccc(-c2[nH]c3ccc(C4CCN(CC(=O)N(C)C)CC4)cc3c2C(C)C)cc1OC", "note": "[Example 312, 2-(4-(2-(3,4-dimethoxyphenyl)-3-isopropyl-11H-indol-5-yl)piperidin-1-yl)-N,N-dimethylacetamide]", "% inhibition of IL6": 34}
{"tested_on": "TLR7", "experiment": "In vivo mouse TLR7 PD model (gardiquimod challenge, plasma IL-6)", "details": "oral, dose 0.01 mg/kg", "description": "as §1, §2", "units": {"% inhibition of IL6": "%"}}
{"molecule": "COc1ccc(-c2[nH]c3ccc(C4CCN(CC(=O)N(C)C)CC4)cc3c2C(C)C)cc1OC", "note": "[Example 312, 2-(4-(2-(3,4-dimethoxyphenyl)-3-isopropyl-11H-indol-5-yl)piperidin-1-yl)-N,N-dimethylacetamide]", "% inhibition of IL6": 39}
{"tested_on": "TLR7", "experiment": "In vivo mouse TLR7 PD model (gardiquimod challenge, plasma IL-6)", "details": "oral, dose 0.1 mg/kg", "description": "as §1, §2", "units": {"% inhibition of IL6": "%"}}
{"molecule": "COc1ccc(-c2[nH]c3ccc(C4CCN(CC(=O)N(C)C)CC4)cc3c2C(C)C)cc1OC", "note": "[Example 312, 2-(4-(2-(3,4-dimethoxyphenyl)-3-isopropyl-11H-indol-5-yl)piperidin-1-yl)-N,N-dimethylacetamide]", "% inhibition of IL6": 59}
{"tested_on": "TLR7", "experiment": "In vivo mouse TLR7 PD model (gardiquimod challenge, plasma IL-6)", "details": "oral, dose 1 mg/kg", "description": "as §1, §2", "units": {"% inhibition of IL6": "%"}}
{"molecule": "COc1ccc(-c2[nH]c3ccc(C4CCN(CC(=O)N(C)C)CC4)cc3c2C(C)C)cc1OC", "note": "[Example 312, 2-(4-(2-(3,4-dimethoxyphenyl)-3-isopropyl-11H-indol-5-yl)piperidin-1-yl)-N,N-dimethylacetamide]", "% inhibition of IL6": 82}
